# Patent US4672036A, “Pure cultures of Kibdelsporangium aridum Shearer gen. nov., sp. nov. ATCC 39323 and mutants thereof” (SmithKline Beckman Corporation, priority 1985, dated 1987)
# Values joined by “and” are separate entries in the source; they are usually repeats but may differ in a detail not shown here. Equal values may be shown once. Read-outs that look alike come from different tables or passages of the source.
# Experiments:
# [1] = tested on: Staph. aureus HH127; assay type: cell-based; settings: Staphylococcus aureus
# [2] = tested on: Staph. aureus SK & F 910; assay type: cell-based; settings: Staphylococcus aureus
# [3] = tested on: Proteus mirabilis SK & F 444; assay type: cell-based; settings: Proteus mirabilis
# [4] = tested on: E. coli 12140 (SK & F 809); assay type: cell-based; settings: Escherichia coli
# [5] = tested on: Pseudomonas aeruginosa HH63; assay type: cell-based; settings: Pseudomonas aeruginosa, HH63
# [6] = tested on: Proteus morgani SK & F 179; assay type: cell-based
# [7] = tested on: Providencia SK & F 276; assay type: cell-based; settings: Providencia
# [8] = tested on: Listeria monocytogenes SK & F 2255; assay type: cell-based; settings: Listeria monocytogenes
# [9] = tested on: Staph. aureus SK & F 674; assay type: cell-based
# [10] = tested on: Staph. aureus SK & F 2593; assay type: cell-based; settings: Staphylococcus aureus
# [11] = tested on: Staph. aureus SK & F 2666; assay type: cell-based; settings: Staphylococcus aureus
# [12] = tested on: Staph. aureus SK & F 2678; assay type: cell-based; settings: Staphylococcus aureus
# [13] = tested on: Staph. aureus SK & F 2680; assay type: cell-based; settings: Staphylococcus aureus
# [14] = tested on: Staph. aureus SK & F 2736; assay type: cell-based; settings: Staphylococcus aureus
# [15] = tested on: Staph. aureus SK & F 2613; assay type: cell-based; settings: Staphylococcus aureus
# [16] = tested on: Staph. aureus SK & F 2614; assay type: cell-based; settings: Staphylococcus aureus
# [17] = tested on: Staph. aureus SK & F 2616; assay type: cell-based; settings: Staphylococcus aureus
# [18] = tested on: Staph. aureus SK & F 2621; assay type: cell-based; settings: Staphylococcus aureus
# [19] = tested on: Staph. aureus SK & F 2594; assay type: cell-based; settings: Staphylococcus aureus
# [20] = tested on: Staph. aureus SK & F 2589; assay type: cell-based; settings: Staphylococcus aureus
# [21] = tested on: Staph. aureus SK & F 2590; assay type: cell-based; settings: Staphylococcus aureus
# [22] = tested on: Staph. aureus SK & F 2591; assay type: cell-based; settings: Staphylococcus aureus
# [23] = tested on: Staph. aureus SK & F 2592; assay type: cell-based; settings: Staphylococcus aureus
# [24] = tested on: Staph. aureus SK & F 2595; assay type: cell-based; settings: Staphylococcus aureus
# [25] = tested on: Staph. aureus SK & F 2596; assay type: cell-based; settings: Staphylococcus aureus
# [26] = tested on: Staph. aureus SK & F 2597; assay type: cell-based; settings: Staphylococcus aureus
# [27] = tested on: Bacteroides fragilis ATCC 25285; assay type: cell-based; settings: Bacteroides fragilis, ATCC25285
# [28] = tested on: B. fragilis H145; assay type: cell-based, Bacteroides fragilis; settings: Bacteroides fragilis, H145
# [29] = tested on: B. fragilis SK & F 3060; assay type: cell-based, Bacteroides fragilis; settings: Bacteroides fragilis
# [30] = tested on: Fusobacterium nucleatum ATCC 25586; assay type: cell-based; settings: Fusobacterium nucleatum, ATCC25586
# [31] = tested on: Staph. aureus 209P; assay type: cell-based; settings: Staphylococcus aureus
# [32] = tested on: Staph. aureus 209P-Mutant; experiment: microbe, parasite or virus in culture; assay type: cell-based; settings: Staphylococcus aureus, 209P
# [33] = tested on: Staph. aureus SK & F 674-P6 Mutant; experiment: microbe, parasite or virus in culture; assay type: cell-based; settings: Staphylococcus aureus
# [34] = tested on: Staph. epidermidis SK & F 2265; assay type: cell-based; settings: Staphylococcus epidermidis
# [35] = tested on: Strep. faecalis SK & F 657; assay type: cell-based; settings: Enterococcus faecalis
# [36] = tested on: Swine in vitro model; experiment: swine in vitro model (growth promotant activity)
# [37] = tested on: rumen in vitro model; experiment: rumen in vitro model (growth promotant activity); parameters: species or system steer; note: test concentration or dose not given here
# [38] = tested on: Staph. aureus HH 127; experiment: animal or person; settings: Staphylococcus aureus, HH127, in Mus musculus
# [39] = tested on: Salmonella gallinarum BC595; experiment: microbe, parasite or virus in culture; settings: Salmonella enterica
# [40] = tested on: Clostridium perfringens MCP-1; experiment: microbe, parasite or virus in culture; settings: MCP1
# [41] = tested on: C. perfringens MCP-2; experiment: microbe, parasite or virus in culture; settings: Clostridium perfringens, MCP2
# [42] = tested on: C. perfringens ATCC 19408; experiment: microbe, parasite or virus in culture; settings: Clostridium perfringens, ATCC19408
compound,measurement,setting,value
"CN[C@H](CC(C)C)C(=O)N[C@H]1C(=O)N[C@@H](CC(N)=O)C(=O)N[C@H]2C(=O)N[C@H]3C(=O)N[C@H](C(=O)N[C@H](C(=O)O)c4cc(O)cc(O)c4-c4cc3ccc4O)[C@H](O)c3ccc(c(Cl)c3)Oc3cc2cc(c3O[C@@H]2O[C@H](CO)[C@@H](O)[C@H](O)[C@H]2O[C@H]2C[C@](C)(N)[C@H](O)[C@H](C)O2)Oc2ccc(cc2Cl)[C@H]1O [Vancomycin, reference compound]",MIC,"[1]; HH127, Table A",1.6 µg/mL
same,MIC,"[1]; HH127, Table B, Methicillin Sensitive",1.6 µg/mL
same,MIC,"[1]; HH127, Table E",3.1 µg/mL
same,MIC,[2]; Table A,1.6 µg/mL
same,MIC,"[2]; Table B, Methicillin Sensitive",1.6 µg/mL
same,MIC,[2]; Table E,3.1 µg/mL
same,MIC,[3],100 µg/mL
same,MIC,[4]; Table A,100 µg/mL
same,MIC,[4]; Table E,> 100 µg/mL
same,MIC,[5],> 100 µg/mL
same,MIC,[6],> 100 µg/mL
same,MIC,[7],> 100 µg/mL
same,MIC,[8]; Table A,1.6 µg/mL
same,MIC,[8]; Table E,3.1 µg/mL
same,MIC,[9]; Staphylococcus aureus,1.6 µg/mL
same,MIC,[9]; Table E,1.6 µg/mL
same,MIC,[10],1.6 µg/mL
same,MIC,[11],1.6 µg/mL
same,MIC,[12],1.6 µg/mL
same,MIC,[13],1.6 µg/mL
same,MIC,[14],1.6 µg/mL
same,MIC,[15],1.6 µg/mL
same,MIC,[16],1.6 µg/mL
same,MIC,[17],0.8 µg/mL
same,MIC,[18],1.6 µg/mL
same,MIC,[19],1.6 µg/mL
same,MIC,[20],1.6 µg/mL
same,MIC,[21],1.6 µg/mL
same,MIC,[22],1.6 µg/mL
same,MIC,[23],3.1 µg/mL
same,MIC,[24],~1.6 µg/mL
same,MIC,[25],3.1 µg/mL
same,MIC,[26],3.1 µg/mL
same,MIC,[27],32 µg/mL
same,MIC,[28],32 µg/mL
same,MIC,[29],32 µg/mL
same,MIC,[30],32 µg/mL
same,MIC,[31],1.6 µg/mL
same,MIC,[32],> 100 µg/mL
same,MIC,[33],> 100 µg/mL
same,MIC,[34],6.3 µg/mL
same,MIC,[35],3.1 µg/mL
same,GLU (glucose),[36],190 % Control and 189 % Control
same,LAC (L-lactic acid),[36],64 % Control and 59 % Control
same,LYS (lysine),[36],48 % Control and 42 % Control and 83 % Control
same,LYS (lysine),[37],85 % Control and 83 % Control
same,ED50,[38],1.76 mg/kg
same,MIC,[39]; Table A,25 µg/mL
same,MIC,[39]; Table E,> 100 µg/mL
same,MIC,[40],0.5 µg/mL
same,MIC,[41],0.5 µg/mL
same,MIC,[42],1 µg/mL
